# According to patent US9995734B2, “Human T cell line assay for evaluating the immunologic identity of glatiramer acetate preparations” (Mylan Inc., priority 2013, dated 2018):
# Legend:
# [1] = system: Donor 1 GMA Expanded T-Cell Lines (222-AG11, 222-AG12, 222-BA11, 222-BC11); test: ATP proliferation assay (CellTiter Glo), Donor 1 GMA expanded T-cell lines, incl. reactivity to non-canonical GA peptides; format: cell-based, human; details: 222-BA11, 222-BC11, 222-AG11, 222-AG12; Day 32; 0, 1, 10, 100 μg/mL
# Summary of the method: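 GMA-expanded T-cell lines from Donor 1 restimulated with GMA (0–100 μg/mL), or with non-canonical GA peptides, COP and GMA (0–30 μg/mL; T cells 2×10^5 cells/mL). Mitomycin C-treated autologous PBMC or B-LCL served as APC. Proliferation read by CellTiter-Glo ATP luminescence after 3 days at 37° C.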
# [2] = system: Donor 3 COP T-Cell Lines; test: ATP proliferation assay (CellTiter Glo), Donor 3 COP T-cell lines, incl. reactivity to non-canonical GA peptides; format: cell-based, human; details: for Reactivity (proliferation), Mean: Day 54 of culture
substance,measurement,setting,value
glatiramer acetate [GMA],"proliferative response relative to control, dose comparison",[1],best proliferative response relative to control was observed in the cells stimulated with 10 μg/mL
same,response in ATP proliferation assay,"[2]; 165-D2C, 165-C7C, 165-C4C, Day 39, three concentrations (Table 24)",responded comparably
same,"Reactivity (proliferation), Mean","[2]; T-cell line 165-B6C, 1 μg/mL antigen, No Antigen 2358",3939 RLU
same,"Mean, ATP proliferation assay","[2]; T-cell line 165-B6C, 1 μg/mL, Day 46, after 3 days",9925 RLU
same,"Reactivity (proliferation), Mean","[2]; T-cell line 165-B6C, 3 μg/mL antigen, No Antigen 2358",19344 RLU
same,"Mean, ATP proliferation assay","[2]; T-cell line 165-B6C, 3 μg/mL, Day 46, after 3 days",38105 RLU
same,"Reactivity (proliferation), Mean","[2]; T-cell line 165-B6C, 10 μg/mL antigen, No Antigen 2358",29012 RLU
same,"Mean, ATP proliferation assay","[2]; T-cell line 165-B6C, 10 μg/mL, Day 46, after 3 days",25839 RLU
same,"Reactivity (proliferation), Mean","[2]; T-cell line 165-B6C, 100 μg/mL antigen, No Antigen 2358",9856 RLU
same,"Mean, ATP proliferation assay","[2]; T-cell line 165-B6C, Day 32, 10 μg/mL",1058 RLU
same,"Reactivity (proliferation), Mean","[2]; T-cell line 165-B10C, 1 μg/mL antigen, No Antigen 2234",1942 RLU
same,"Mean, ATP proliferation assay","[2]; T-cell line 165-B10C, 1 μg/mL, Day 46, after 3 days",5592 RLU
same,"Reactivity (proliferation), Mean","[2]; T-cell line 165-B10C, 3 μg/mL antigen, No Antigen 2234",2658 RLU
same,"Mean, ATP proliferation assay","[2]; T-cell line 165-B10C, 3 μg/mL, Day 46, after 3 days",13012 RLU
same,"Reactivity (proliferation), Mean","[2]; T-cell line 165-B10C, 10 μg/mL antigen, No Antigen 2234",5854 RLU
same,"Mean, ATP proliferation assay","[2]; T-cell line 165-B10C, 10 μg/mL, Day 46, after 3 days",19866 RLU
same,"Reactivity (proliferation), Mean","[2]; T-cell line 165-B10C, 100 μg/mL antigen, No Antigen 2234",6380 RLU
same,"Proliferation (luminescent ATP assay), Mean","[2]; T-cell line 165-C4C, 1 μg/mL antigen, Day 66 of culture, 0 μg/mL 1881",2668
same,"Mean, ATP proliferation assay","[2]; T-cell line 165-C4C, 1 μg/mL, Day 39",9367
same,"Proliferation (luminescent ATP assay), Mean","[2]; T-cell line 165-C4C, 3 μg/mL antigen, Day 66 of culture, 0 μg/mL 1881",16108
same,"Mean, ATP proliferation assay","[2]; T-cell line 165-C4C, 3 μg/mL, Day 39",26279
same,"Proliferation (luminescent ATP assay), Mean","[2]; T-cell line 165-C4C, 10 μg/mL antigen, Day 66 of culture, 0 μg/mL 1881",88509
same,"Mean, ATP proliferation assay","[2]; T-cell line 165-C4C, 10 μg/mL, Day 39",31014
same,"Mean, ATP proliferation assay","[2]; T-cell line 165-C7C, 1 μg/mL, Day 39",3307
same,"Proliferation (luminescent ATP assay), Mean","[2]; T-cell line 165-C7C, 1.25 μg/mL antigen, autologous B-LCL",610 RLU
same,"Proliferation (luminescent ATP assay), Mean","[2]; T-cell line 165-C7C, 2.5 μg/mL antigen, autologous B-LCL",2699 RLU
same,"Mean, ATP proliferation assay","[2]; T-cell line 165-C7C, 3 μg/mL, Day 39",12832
same,"Proliferation (luminescent ATP assay), Mean","[2]; T-cell line 165-C7C, 5 μg/mL antigen, autologous B-LCL",22588 RLU
same,"Proliferation (luminescent ATP assay), Mean","[2]; T-cell line 165-C7C, 10 μg/mL antigen, autologous B-LCL",24029 RLU
same,"Mean, ATP proliferation assay","[2]; T-cell line 165-C7C, 10 μg/mL, Day 39",42739
same,"Mean, ATP proliferation assay","[2]; T-cell line 165-D2C, 1 μg/mL, Day 39",3881
same,"Mean, ATP proliferation assay","[2]; T-cell line 165-D2C, 3 μg/mL, Day 39",7503
same,"Mean, ATP proliferation assay","[2]; T-cell line 165-D2C, 10 μg/mL, Day 39",13253
same,"Reactivity (proliferation), Mean","[2]; T-cell line 165-D3C, 1 μg/mL antigen, No Antigen 8319",24131 RLU
same,"Mean, ATP proliferation assay","[2]; T-cell line 165-D3C, 1 μg/mL, Day 46, after 3 days",61535 RLU
same,"Reactivity (proliferation), Mean","[2]; T-cell line 165-D3C, 3 μg/mL antigen, No Antigen 8319",58814 RLU
same,"Mean, ATP proliferation assay","[2]; T-cell line 165-D3C, 3 μg/mL, Day 46, after 3 days",80112 RLU
same,"Reactivity (proliferation), Mean","[2]; T-cell line 165-D3C, 10 μg/mL antigen, No Antigen 8319",57024 RLU
same,"Mean, ATP proliferation assay","[2]; T-cell line 165-D3C, 10 μg/mL, Day 46, after 3 days",107772 RLU
same,"Reactivity (proliferation), Mean","[2]; T-cell line 165-D3C, 100 μg/mL antigen, No Antigen 8319",14205 RLU
same,"Mean, ATP proliferation assay","[2]; T-cell line 165-D3C, Day 32, 10 μg/mL",3436 RLU
same,"Reactivity (proliferation), Mean","[2]; T-cell line 165-D11C, 1 μg/mL antigen, No Antigen 4571",3636 RLU
same,"Mean, ATP proliferation assay","[2]; T-cell line 165-D11C, 1 μg/mL, Day 46, after 3 days",15655 RLU
same,"Reactivity (proliferation), Mean","[2]; T-cell line 165-D11C, 3 μg/mL antigen, No Antigen 4571",6578 RLU
same,"Mean, ATP proliferation assay","[2]; T-cell line 165-D11C, 3 μg/mL, Day 46, after 3 days",17777 RLU
same,"Reactivity (proliferation), Mean","[2]; T-cell line 165-D11C, 10 μg/mL antigen, No Antigen 4571",16338 RLU
same,"Mean, ATP proliferation assay","[2]; T-cell line 165-D11C, 10 μg/mL, Day 46, after 3 days",56609 RLU
same,"Reactivity (proliferation), Mean","[2]; T-cell line 165-D11C, 100 μg/mL antigen, No Antigen 4571",14560 RLU
same,"Mean, ATP proliferation assay","[2]; T-cell line 165-D11C, Day 32, 10 μg/mL",416 RLU
same,"Reactivity (proliferation), Mean","[2]; T-cell line 165-E3C, 1 μg/mL antigen, No Antigen 2797",2954 RLU
same,"Mean, ATP proliferation assay","[2]; T-cell line 165-E3C, 1 μg/mL, Day 46, after 3 days",10662 RLU
